According to patent US9422267B2, “Fused pyrimidine compounds and use thereof” (Medivation Technologies, Inc., priority 2012, dated 2016):

Legend:
Type in all cases: biochemical
RET = RET (Homo sapiens, UniProt P07949); assay: Caliper kinase profiling: RET
BMX = target: T1, BMX (Homo sapiens, UniProt P51813); assay: Caliper kinase profiling: BMX
T1 sequence (P51813 1-675): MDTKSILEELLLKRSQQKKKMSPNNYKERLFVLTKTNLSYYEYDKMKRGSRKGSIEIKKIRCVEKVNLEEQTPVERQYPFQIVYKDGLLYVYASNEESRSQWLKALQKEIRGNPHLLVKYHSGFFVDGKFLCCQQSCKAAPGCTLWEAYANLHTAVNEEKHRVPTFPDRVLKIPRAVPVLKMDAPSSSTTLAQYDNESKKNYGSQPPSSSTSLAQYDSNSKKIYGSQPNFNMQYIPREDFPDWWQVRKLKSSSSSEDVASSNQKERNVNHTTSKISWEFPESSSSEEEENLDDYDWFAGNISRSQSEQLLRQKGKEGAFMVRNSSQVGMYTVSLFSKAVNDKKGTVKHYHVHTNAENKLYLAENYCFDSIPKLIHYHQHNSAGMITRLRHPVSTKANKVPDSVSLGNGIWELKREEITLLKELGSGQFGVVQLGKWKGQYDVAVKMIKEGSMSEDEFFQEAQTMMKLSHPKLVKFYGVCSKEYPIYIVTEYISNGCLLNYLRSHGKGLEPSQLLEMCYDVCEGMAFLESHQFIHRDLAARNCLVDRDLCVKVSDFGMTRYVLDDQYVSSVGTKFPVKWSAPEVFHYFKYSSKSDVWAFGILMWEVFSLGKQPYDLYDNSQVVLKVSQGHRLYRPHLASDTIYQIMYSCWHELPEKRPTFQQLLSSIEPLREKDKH

FGFR3 = FGFR3 (Homo sapiens, UniProt P22607); assay: Caliper kinase profiling: FGFR3; details: FGFR3, 1 μM; read-out: Average % Inh @ 1 μM
LCK = LCK (Homo sapiens, UniProt P06239); assay: Caliper kinase profiling: LCK
EPHB1 = EPHB1 (Homo sapiens, UniProt P54762); assay: Caliper kinase profiling: EPHB1; details: EPHB1, 1 μM; read-out: Average % Inh @ 1 μM
EPHA4 = EPHA4 (Homo sapiens, UniProt P54764); assay: Caliper kinase profiling: EPHA4; details: EPHA4, 1 μM; read-out: Average % Inh @ 1 μM
EPHB4 = EPHB4 (Homo sapiens, UniProt P54760); assay: Caliper kinase profiling: EPHB4; details: EPHB4, 1 μM; read-out: Average % Inh @ 1 μM
Fer = Fer (Homo sapiens, UniProt P16591); assay: Caliper kinase profiling: Fer
Hck = Hck (Homo sapiens, UniProt P08631); assay: Caliper kinase profiling: Hck
DCAMKL2 = DCAMKL2 (Homo sapiens, UniProt Q8N568); assay: Caliper kinase profiling: DCAMKL2; details: DCAMKL2, 1 μM; read-out: Average % Inh @ 1 μM
ABL1(G250E) = target: T2, ABL1(G250E) (Homo sapiens, UniProt P00519, G250E); assay: Caliper kinase profiling: ABL1(G250E); details: read-out: Average % Inh @ 1 μM
T2 construct: purchased Caliper LifeSciences (ProfilerPro Kinase Selectivity Assay Kits)

MST1R = MST1R (Homo sapiens, UniProt Q04912); assay: Caliper kinase profiling: MST1R; details: read-out: Average % Inh @ 1 μM
Yes = Yes (Homo sapiens, UniProt P07947); assay: Caliper kinase profiling: Yes
DDR2 = DDR2 (Homo sapiens, UniProt Q16832); assay: Caliper kinase profiling: DDR2; details: DDR2, 1 μM; read-out: Average % Inh @ 1 μM
RET(Y791F) = RET(Y791F) (Homo sapiens, UniProt P07949, Y791F); assay: Caliper kinase profiling: RET(Y791F)
ALK = target: T3, ALK (Homo sapiens, UniProt Q9UM73); assay: Caliper kinase profiling: ALK
T3 construct: purchased Caliper LifeSciences (ProfilerPro Kinase Selectivity Assay Kits)

DCAMKL1 = DCAMKL1 (Homo sapiens, UniProt O15075); assay: Caliper kinase profiling: DCAMKL1; details: DCAMKL1, 1 μM; read-out: Average % Inh @ 1 μM
PhKg2 = PhKg2 (Homo sapiens, UniProt P15735); assay: Caliper kinase profiling: PhKg2; details: PhKg2, 1 μM; read-out: Average % Inh @ 1 μM
Abl(H396P) = target: T4, Abl(H396P) (Homo sapiens, UniProt P00519, H396P); assay: Caliper kinase profiling: Abl(H396P); details: read-out: Average % Inh @ 1 μM
T4 construct: purchased Caliper LifeSciences (ProfilerPro Kinase Selectivity Assay Kits)

FGFR2 = FGFR2 (Homo sapiens, UniProt P21802); assay: Caliper kinase profiling: FGFR2
FGR = FGR (Homo sapiens, UniProt P09769); assay: Caliper kinase profiling: FGR
[1] = 10 nM, read-out: Average % Inh @ 10 nM
[2] = 100 nM, read-out: Average % Inh @ 100 nM
[3] = 1 μM, read-out: Average % Inh @ 1 μM

Sequence of RET(Y791F) (P07949 29-1114 Y791F): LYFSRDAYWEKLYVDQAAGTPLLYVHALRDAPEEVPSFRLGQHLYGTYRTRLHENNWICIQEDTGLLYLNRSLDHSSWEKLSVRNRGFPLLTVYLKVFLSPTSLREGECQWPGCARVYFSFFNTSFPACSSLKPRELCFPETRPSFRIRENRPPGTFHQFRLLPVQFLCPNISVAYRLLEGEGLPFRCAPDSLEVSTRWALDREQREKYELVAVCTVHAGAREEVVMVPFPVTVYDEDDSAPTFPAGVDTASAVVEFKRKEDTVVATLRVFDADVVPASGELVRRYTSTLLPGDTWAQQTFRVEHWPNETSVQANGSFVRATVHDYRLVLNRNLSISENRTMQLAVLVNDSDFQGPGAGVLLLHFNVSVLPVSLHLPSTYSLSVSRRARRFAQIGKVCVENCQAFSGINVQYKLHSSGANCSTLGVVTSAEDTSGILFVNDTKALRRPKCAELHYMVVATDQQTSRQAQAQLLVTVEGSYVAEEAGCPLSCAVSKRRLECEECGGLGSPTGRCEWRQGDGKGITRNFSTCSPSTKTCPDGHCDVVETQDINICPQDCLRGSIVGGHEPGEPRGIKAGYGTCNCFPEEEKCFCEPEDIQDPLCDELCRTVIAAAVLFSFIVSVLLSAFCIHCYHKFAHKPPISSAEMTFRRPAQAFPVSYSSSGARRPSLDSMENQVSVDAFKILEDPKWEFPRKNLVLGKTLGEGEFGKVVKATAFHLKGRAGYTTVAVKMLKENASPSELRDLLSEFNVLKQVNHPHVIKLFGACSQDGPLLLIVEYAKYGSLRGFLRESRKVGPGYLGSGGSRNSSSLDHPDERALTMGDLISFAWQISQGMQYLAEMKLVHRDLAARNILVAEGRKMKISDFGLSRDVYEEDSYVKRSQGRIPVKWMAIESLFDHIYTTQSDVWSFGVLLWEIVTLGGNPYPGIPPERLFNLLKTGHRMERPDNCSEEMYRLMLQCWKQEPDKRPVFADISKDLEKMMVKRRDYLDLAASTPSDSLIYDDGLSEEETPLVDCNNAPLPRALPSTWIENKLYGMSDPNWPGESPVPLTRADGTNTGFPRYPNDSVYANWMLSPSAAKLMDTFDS
Sequence of RET (P07949 29-1114): as the sequence (P07949 29-1114 Y791F) above, with F763Y counted along it
Sequence of Hck (P08631 whole entry): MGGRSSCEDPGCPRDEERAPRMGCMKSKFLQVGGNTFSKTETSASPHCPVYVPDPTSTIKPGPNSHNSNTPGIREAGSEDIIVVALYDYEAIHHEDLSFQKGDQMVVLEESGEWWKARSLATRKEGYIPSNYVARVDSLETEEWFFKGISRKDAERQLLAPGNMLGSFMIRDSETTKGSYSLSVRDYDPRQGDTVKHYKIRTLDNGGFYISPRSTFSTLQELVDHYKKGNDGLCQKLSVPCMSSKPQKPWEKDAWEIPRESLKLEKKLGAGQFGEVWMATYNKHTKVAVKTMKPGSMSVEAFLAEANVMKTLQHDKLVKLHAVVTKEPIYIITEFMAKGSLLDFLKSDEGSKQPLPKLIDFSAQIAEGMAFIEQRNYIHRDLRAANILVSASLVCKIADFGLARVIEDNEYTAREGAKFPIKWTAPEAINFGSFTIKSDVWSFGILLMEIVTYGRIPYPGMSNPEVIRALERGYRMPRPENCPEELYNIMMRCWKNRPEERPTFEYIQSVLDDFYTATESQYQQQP
Sequence of LCK (P06239 whole entry): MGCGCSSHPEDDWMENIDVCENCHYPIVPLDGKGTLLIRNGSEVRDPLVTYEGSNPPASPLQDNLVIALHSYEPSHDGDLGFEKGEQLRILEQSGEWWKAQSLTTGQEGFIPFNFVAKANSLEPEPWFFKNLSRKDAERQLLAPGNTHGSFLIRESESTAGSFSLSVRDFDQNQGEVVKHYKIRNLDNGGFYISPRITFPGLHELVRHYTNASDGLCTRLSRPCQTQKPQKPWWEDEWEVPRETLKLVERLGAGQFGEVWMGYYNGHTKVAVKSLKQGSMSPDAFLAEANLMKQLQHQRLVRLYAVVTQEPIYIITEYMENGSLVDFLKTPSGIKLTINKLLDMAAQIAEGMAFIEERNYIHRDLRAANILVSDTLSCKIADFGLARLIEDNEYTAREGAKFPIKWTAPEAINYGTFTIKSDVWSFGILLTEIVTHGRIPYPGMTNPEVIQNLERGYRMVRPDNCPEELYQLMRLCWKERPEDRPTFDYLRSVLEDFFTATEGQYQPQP
Sequence of FGFR2 (P21802 22-821): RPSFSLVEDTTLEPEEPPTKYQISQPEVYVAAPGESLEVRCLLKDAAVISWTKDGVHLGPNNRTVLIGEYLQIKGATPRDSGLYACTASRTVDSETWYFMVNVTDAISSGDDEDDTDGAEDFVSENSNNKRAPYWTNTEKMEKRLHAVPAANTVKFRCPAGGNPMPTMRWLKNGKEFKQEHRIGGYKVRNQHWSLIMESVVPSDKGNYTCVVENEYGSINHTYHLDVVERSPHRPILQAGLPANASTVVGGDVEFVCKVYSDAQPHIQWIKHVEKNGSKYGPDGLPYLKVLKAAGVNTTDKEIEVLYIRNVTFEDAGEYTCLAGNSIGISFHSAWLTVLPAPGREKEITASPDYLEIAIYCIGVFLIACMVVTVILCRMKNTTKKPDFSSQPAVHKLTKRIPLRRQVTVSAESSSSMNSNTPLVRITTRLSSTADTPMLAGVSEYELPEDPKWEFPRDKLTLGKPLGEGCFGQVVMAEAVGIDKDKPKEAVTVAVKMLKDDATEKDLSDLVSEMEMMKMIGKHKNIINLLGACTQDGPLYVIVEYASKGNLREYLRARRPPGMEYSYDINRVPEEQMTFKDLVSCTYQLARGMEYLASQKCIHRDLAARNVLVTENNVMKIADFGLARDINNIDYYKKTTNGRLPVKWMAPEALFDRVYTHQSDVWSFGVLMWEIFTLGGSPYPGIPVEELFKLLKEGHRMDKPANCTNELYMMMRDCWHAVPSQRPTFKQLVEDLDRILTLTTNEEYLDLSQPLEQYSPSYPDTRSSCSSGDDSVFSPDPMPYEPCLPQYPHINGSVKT
Sequence of Fer (P16591 whole entry): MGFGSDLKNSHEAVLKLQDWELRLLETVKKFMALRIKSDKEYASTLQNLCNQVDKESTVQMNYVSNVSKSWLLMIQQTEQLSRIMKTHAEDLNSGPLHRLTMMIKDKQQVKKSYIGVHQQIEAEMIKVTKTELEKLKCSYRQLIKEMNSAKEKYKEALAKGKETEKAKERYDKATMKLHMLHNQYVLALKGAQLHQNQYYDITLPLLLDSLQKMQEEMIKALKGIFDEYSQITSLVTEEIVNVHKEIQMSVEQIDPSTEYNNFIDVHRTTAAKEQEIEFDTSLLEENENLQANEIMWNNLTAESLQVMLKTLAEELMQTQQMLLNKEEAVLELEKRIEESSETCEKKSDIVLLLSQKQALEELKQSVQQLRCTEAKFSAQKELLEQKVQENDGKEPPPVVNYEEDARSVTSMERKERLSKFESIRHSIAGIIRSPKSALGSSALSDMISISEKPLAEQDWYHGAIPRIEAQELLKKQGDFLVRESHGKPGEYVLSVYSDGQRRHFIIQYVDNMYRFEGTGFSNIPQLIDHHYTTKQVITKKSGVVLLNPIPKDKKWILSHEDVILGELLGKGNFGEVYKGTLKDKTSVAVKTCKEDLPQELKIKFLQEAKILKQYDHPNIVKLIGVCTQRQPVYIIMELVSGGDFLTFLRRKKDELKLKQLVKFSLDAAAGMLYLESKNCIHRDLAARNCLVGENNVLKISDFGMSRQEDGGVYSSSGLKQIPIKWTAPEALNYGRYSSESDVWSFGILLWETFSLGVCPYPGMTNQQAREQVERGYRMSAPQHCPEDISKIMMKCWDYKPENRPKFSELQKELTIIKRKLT
Sequence of Yes (P07947 whole entry): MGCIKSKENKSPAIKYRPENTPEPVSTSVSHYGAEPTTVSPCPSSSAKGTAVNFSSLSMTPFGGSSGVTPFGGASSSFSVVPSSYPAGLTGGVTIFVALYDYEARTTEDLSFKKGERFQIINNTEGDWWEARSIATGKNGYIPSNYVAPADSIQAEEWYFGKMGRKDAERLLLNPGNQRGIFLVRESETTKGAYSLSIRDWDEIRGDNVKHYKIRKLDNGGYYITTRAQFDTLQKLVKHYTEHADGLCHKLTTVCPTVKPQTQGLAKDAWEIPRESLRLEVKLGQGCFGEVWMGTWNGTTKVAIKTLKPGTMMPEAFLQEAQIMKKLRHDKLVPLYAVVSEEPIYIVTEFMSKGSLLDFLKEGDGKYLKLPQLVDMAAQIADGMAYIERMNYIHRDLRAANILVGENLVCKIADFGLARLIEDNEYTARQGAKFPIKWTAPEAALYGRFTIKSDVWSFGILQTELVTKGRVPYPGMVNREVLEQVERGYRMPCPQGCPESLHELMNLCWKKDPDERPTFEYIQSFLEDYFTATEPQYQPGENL
Sequence of FGR (P09769 whole entry): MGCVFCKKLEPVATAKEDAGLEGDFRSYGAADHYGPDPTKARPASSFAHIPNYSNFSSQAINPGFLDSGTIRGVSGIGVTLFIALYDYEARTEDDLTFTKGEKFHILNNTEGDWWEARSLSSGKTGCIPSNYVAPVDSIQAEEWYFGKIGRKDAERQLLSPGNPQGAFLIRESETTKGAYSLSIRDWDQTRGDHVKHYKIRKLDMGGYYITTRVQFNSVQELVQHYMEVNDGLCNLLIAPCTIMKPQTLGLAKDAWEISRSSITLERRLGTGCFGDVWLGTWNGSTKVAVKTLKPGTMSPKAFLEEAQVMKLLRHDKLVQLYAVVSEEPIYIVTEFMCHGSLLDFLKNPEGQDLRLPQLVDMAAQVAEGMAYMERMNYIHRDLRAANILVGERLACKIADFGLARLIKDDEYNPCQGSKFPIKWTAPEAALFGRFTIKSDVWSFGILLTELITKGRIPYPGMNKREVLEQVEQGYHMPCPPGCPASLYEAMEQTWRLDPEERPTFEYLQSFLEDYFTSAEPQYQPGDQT

With O=C(Nc1ccc(F)nc1)C1CCCN1c1nc2c(c(Nc3cc(C4CC4)[nH]n3)n1)CCC2 (single isomer, unassigned) [Compound 2b, 1-(4-(5-cyclopropyl-1H-pyrazol-3-ylamino)-6,7-dihydro-5H-cyclopenta[d]pyrimidin-2-yl)-N-(6-fluoropyridin-3-yl)pyrrolidine-2-carboxamide] the inhibition at 0.01 µM (RET; [1]) was < 39%, the inhibition at 0.1 µM (RET; [2]) was 40 to 59% and the inhibition at 1 µM (RET; [3]) was > 60%. The inhibition at 0.01 µM (BMX; [1]) was < 39%, the inhibition at 0.1 µM (BMX; [2]) was < 39% and the inhibition at 1 µM (BMX; [3]) was 40 to 59%. The inhibition at 1 µM (FGFR3) was > 60%, the inhibition at 0.01 µM (LCK; [1]) was < 39% and the inhibition at 0.1 µM (LCK; [2]) was < 39%. For the same compound, the inhibition at 1 µM (LCK; [3]) was > 60%, the inhibition at 1 µM (EPHB1) was > 60% and the inhibition at 1 µM (EPHA4) was 40 to 59%. The inhibition at 1 µM (EPHB4) was 40 to 59%, the inhibition at 0.01 µM (Fer; [1]) was < 39% and the inhibition at 0.1 µM (Fer; [2]) was > 60%. The inhibition at 1 µM (Fer; [3]) was > 60%, the inhibition at 0.01 µM (Hck; [1]) was < 39% and the inhibition at 0.1 µM (Hck; [2]) was 40 to 59%. For the same compound, the inhibition at 1 µM (Hck; [3]) was > 60%, the inhibition at 1 µM (DCAMKL2) was > 60% and the inhibition at 1 µM (ABL1(G250E)) was > 60%. The inhibition at 1 µM (MST1R) was > 60%, the inhibition at 0.01 µM (Yes; [1]) was < 39% and the inhibition at 0.1 µM (Yes; [2]) was 40 to 59%. For the same compound, the inhibition at 1 µM (Yes; [3]) was > 60%, the inhibition at 1 µM (DDR2) was > 60% and the inhibition at 0.01 µM (RET(Y791F); [1]) was < 39%. The inhibition at 0.1 µM (RET(Y791F); [2]) was 40 to 59%, the inhibition at 1 µM (RET(Y791F); [3]) was > 60% and the inhibition at 0.01 µM (ALK; [1]) was < 39%. The inhibition at 0.1 µM (ALK; [2]) was < 39%, the inhibition at 1 µM (ALK; [3]) was > 60% and the inhibition at 1 µM (DCAMKL1) was 40 to 59%. The inhibition at 1 µM (PhKg2) was 40 to 59%, the inhibition at 1 µM (Abl(H396P)) was 40 to 59% and the inhibition at 0.01 µM (FGFR2; FGFR2, 10 nM, read-out: Average % Inh @ 10 nM) was < 39%. For the same compound, the inhibition at 0.1 µM (FGFR2; FGFR2, 100 nM, read-out: Average % Inh @ 100 nM) was < 39%, the inhibition at 1 µM (FGFR2; FGFR2, 1 μM, read-out: Average % Inh @ 1 μM) was > 60% and the inhibition at 0.01 µM (FGR; [1]) was < 39%. For the same compound, the inhibition at 0.1 µM (FGR; [2]) was < 39% and the inhibition at 1 µM (FGR; [3]) was > 60%.
